Test results from patent publication US6933312B2, “Pyrazole derivatives” (Agouron Pharmaceuticals, Inc., priority 2002, dated 2005).

Tests used:
[1] = molecular target: T1, purified recombinant HIV-1 reverse transcriptase (Human immunodeficiency virus type 1 group M subtype B, UniProt P04585); test: Inhibition of HIV-1 Reverse Transcriptase Enzyme; assay type: biochemical; conditions: Poly(rA)-oligo(dT) [3H]-SPA or [3H]-flashplate enzyme assay; 5% final DMSO
T1 construct: purified recombinant HIV-1 reverse transcriptase (RT, EC, 2.7.7.49); made in house; host or cells: Escherichia coli
Excerpt: The activity of the compounds of the invention as reverse transcriptase inhibitors may be measured using the following assay.
Inhibition of HIV-1 Reverse Transcriptase Enzyme
Using purified recombinant HIV-1 reverse transcriptase (RT, EC, 2.7.7.49) obtained by expression in Escherichia Coli, a 96-well plate assay system is established for assaying a large number of samples using either the Poly(rA)-oligo(dT) Reverse Transcriptase [3H]-SPA enzyme assay system (Amersham NK9020) or the [3H]-flashplate enzyme assay system (NEN—SMP 103) and following the manufacturer's recommendations. The compounds are dissolved in 100% DMSO and diluted with the appropriate buffer to a 5% final DMSO concentration. The inhibitory activity is expressed in percent inhibition relative to DMSO control.

Compound	melting point [°C]	IC50 [1] [nM]
Cc1n[nH]c(CN2Cc3ncccc3C2=O)c1Oc1cc(Cl)cc(C#N)c1	225 to 227	
Cc1n[nH]c(CN2Cc3ccccc3C2=O)c1Oc1cc(C#N)cc(C#N)c1 [Example 4, 5-[3-Methyl-5-(1-oxo-1,3-dihydro-isoindol-2-ylmethyl)-1H-pyrazol-4-yloxy]-isophthalonitrile]	247 to 248	505
Cc1n[nH]c(CN2Cc3ccccc3C2=O)c1Oc1cc(Cl)cc(C#N)c1 [Example 1, 3-Chloro-5-[3-methyl-5-(1-oxo-1,3-dihydro-isoindol-2ylmethyl)-1H-pyrazol-4-yloxy]-benzonitrile]		76
